Reference: patent publication US5443986A, “Enzymatic analysis using substrates that yield fluorescent precipitates” (Molecular Probes, Inc., priority 1993, dated 1995)

Columns and labels:
[1] = Critical concentration (Mc) for precipitation of the enzymatic product; assay type: physicochemical; settings: product of hydrolysis by excess alkaline phosphatase, 0.1M TRIS pH 10.3
Protocol: 2D) Critical concentration: Various concentrations of 2-(4'-methoxy-2'-phosphoryloxyphenyl)quinazolinone (3e) were reacted with 50 μL of excess alkaline phosphatase in 200 μL solution of 0.1M TRIS≥pH 10.3 containing 50 mM NaCl, 10 mM MgCl2 and 0.1 mM ZnCl2. The resulting precipitate and fluorescence were measured in a CytoFluor fluorescence plate reader (Millipore) with excitation at 360 nm, emission at 460 nm using sensitivity setting 3.
3). Determination of the critical concentration and pH dependence for the precipitation. The critical concentration (Mc, in units of mmoles) and the pH dependence (pKa) for precipitation are both important parameters for judging the precipitation properties of the enzymatic products obtained from the subject substrates. Below the critical concentration the product will not be detected as a fluorescent precipitate. Obviously these two parameters contribute to the precipitation in a correlated way. As a simple approach, one may define the critical concentration as the concentration necessary for the precipitation at a high pH where all of the phenol group is ionized. Similarly, acidification by lowering the pH results in precipitation at a concentration below the critical concentration that is obtained at high pH to an extent that is related to the pKa of the phenolic group. It is a characteristic of the preferred substrates that only the product precipitate is fluorescent. In this case the precipitate is quantitated by its fluorescence which results in a correlation of the fluorescence with the degree of precipitation.
To obtain the critical concentration for one product the phosphatase substrate (1e) (200 μL) in a 96-well plate is added to 0.1M TRIS, pH 10.3, containing 50 mM NaCl, 10 mM MgCl2 and 0.1 mM ZnCl2 to yield a final concentration of 0.1 to 10 mM. 50 μL of a 1 mg/mL solution of alkaline phosphatase is then added. The fluorescence development is complete after 5 minutes as measured in using a CytoFluor™ 2300 fluorescence plate reader (Millipore, Bedford, Mass.). A concentration showing appreciable fluorescence is determined as the critical concentration.

HEp-2 cells = experiment: Enzyme-mediated immunohistochemical detection (SLE kit) on fixed HEp-2 cells; assay type: cell-based, human; settings: 30 minute incubation, 100 mM MOPS pH 7.5, biotinylated alkaline phosphatase
Protocol: 1 ). Cells and Detection Kit. […] The kit includes slides containing wells of fixed HEp-2 cells (human epithelial cells) and a positive control consisting of anti-DNA antibodies isolated from humans with the disease. Normally, the slides are incubated with sera from patients and then probed with fluorescein-conjugated anti-human antibodies. Using this method, the nuclei of those cells that have been incubated with SLE-positive sera appear to have typical morphology that is identified by their green fluorescence using standard fluorescence microscopy whereas the negative controls have no fluorescence.
2). Sample Preparation. A four-step incubation protocol is used to prepare the slides. All reagents are diluted in 1% bovine serum albumin (BSA) in TRIS-buffered saline, pH 7.5 (TBS; 100 mM NaCl, 100 mM TRIS). Each incubation is 1/2 hour. Slides are washed three times with TBS between incubations. A typical procedure consists of the following steps:
1. The wells are incubated with either SLE-positive or -negative human sera (provided in the kit).
2. The wells are incubated with biotinylated goat anti-human ([…]).
3. The wells are incubated with streptavidin (50 μg/mL), a reagent that has four binding sites for biotin. Excess binding sites are available for binding the next reagent.
4. The wells are incubated with a biotinylated enzyme that will remove BLOCK from the subject substrates. […]

For `O=c1[nH]c(-c2cc(Cl)ccc2OP(=O)(O)O)nc2ccc(Cl)cc12` [8e, Ammonium 2-(5'-chloro-2'-phosphoryloxyphenyl)-6-chloro-4-(3H)-quinazolinone], the “Mc (critical concentration for precipitation)” value [1] was 0.1 mM, the “staining of cells incubated with SLE-positive sera” value (HEp-2 cells) was “brightly fluorescent nuclei” and the “staining of wells incubated with negative sera” value (HEp-2 cells) was “No signal is detected”.
